Data from patent US20230192712A1, “MODULATORS OF THE INTEGRATED STRESS PATHWAY” (Calico Life Sciences LLC, priority 2017, published 2023).
pEC50: −log10 of the molar value.

Test system: HEK293T cells carrying the ATF4 luciferase reporter
Test: ATF4-Luc assay (in vitro model of VWMD)
Assay type: cell-based
Conditions: Homo sapiens, HEK-293T; HEK293T ATF4 5'-UTR firefly luciferase reporter cells, 1 μg/mL tunicamycin, 7 hours, One Glo luminescence
Procedure: In order to test exemplary compounds of the invention in a cellular context, a stable VWMD cell line was first constructed. The ATF4 reporter was prepared by fusing the human full-length ATF4 5′-UTR (NCBI Accession No. BC022088.2) in front of the firefly luciferase (FLuc) coding sequence lacking the initiator methionine as described in Sidrauski et al (eLife 2013). The construct was used to produce recombinant retroviruses using standard methods and the resulting viral supernatant was used to transduce HEK293T cells, which were then subsequently selected with puromycin to generate a stable cell line.
HEK293T cells carrying the ATF4 luciferase reporter were plated on polylysine coated 384-well plates (Greiner Bio-one) at 30,000 cells per well. Cells were treated the next day with 1 μg/mL tunicamycin and 200 nM of a compound of Formula (I) or Formula (II) for 7 hours. Luminescence was measured using One Glo (Promega) as specified by the manufacturer. Cells were maintained in DMEM with L-glutamine supplemented with 10% heat-inactivated FBS (Gibco) and Antibiotic-Antimycotic solution (Gibco).
Table 2 below summarizes the EC50 data obtained using the ATF4-Luc assay for exemplary compounds of the invention.

`O=C(COc1ccc(Cl)c(F)c1)NC12CC(C(=O)N3CC4(C3)CN(c3ccc(Cl)c(F)c3)C4)(C1)C2` [Compound 100, 2-(4-chloro-3-fluorophenoxy)-N-{3-[6-(4-chloro-3-fluorophenyl)-2,6-diazaspiro[3.3]heptane-2-carbonyl]bicyclo[1.1.1]pentan-1-yl}acetamide] and `O=C(COc1ccc(Cl)c(F)c1)NC12CC(C(=O)N3CC(O)(c4ccc(Cl)cc4)C3)(C1)C2` [Compound 110, 2-(4-chloro-3-fluorophenoxy)-N-{3-[3-(4-chlorophenyl)-3-hydroxyazetidine-1-carbonyl]bicyclo[1.1.1]pentan-1-yl}acetamide] cannot be ordered by pEC50: under 5.70 for the first, under 5.70 for the second.

First: O=C(COc1ccc(Cl)c(F)c1)NC12CC(C(=O)N3CCC(c4ccc(Cl)cc4)CC3)(C1)C2 [Compound 101, 2-(4-chloro-3-fluorophenoxy)-N-{3-[4-(4-chlorophenyl)piperidine-1-carbonyl]bicyclo[1.1.1]pentan-1-yl}acetamide]
Second: O=C(COc1ccc(Cl)c(F)c1)NC12CC(C(=O)N3CCC(c4ccc(Cl)cc4)C3)(C1)C2 (stereo not shown) [Compound 103, 2-(4-chloro-3-fluorophenoxy)-N-{3-[3-(4-chlorophenyl)pyrrolidine-1-carbonyl]bicyclo[1.1.1]pentan-1-yl}acetamide]
The pEC50 of the first is higher: 6.60 to 7.30 for the first, under 5.70 for the second. The first is the more potent here.

Compared with `O=C(COc1ccc(Cl)c(F)c1)NC12CCC(C(=O)N3CCC(c4ccc(Cl)cc4)CC3)(CC1)CC2` [Compound 102, 2-(4-chloro-3-fluorophenoxy)-N-{4-[4-(4-chlorophenyl)piperidine-1-carbonyl]bicyclo[2.2.2]octan-1-yl}acetamide], `O=C(COc1ccc(Cl)c(F)c1)NC12CCC(C(=O)N3CCC(c4ccc(Cl)cc4)C3)(CC1)CC2` (stereo not shown) [Compound 104, 2-(4-chloro-3-fluorophenoxy)-N-{4-[3-(4-chlorophenyl)pyrrolidine-1-carbonyl]bicyclo[2.2.2]octan-1-yl}acetamide] is lower in pEC50: 6.60 to 7.30 for the first, under 5.70 for the second. The first is the more potent here.

`O=C(COc1ccc(Cl)c(F)c1)NC12CCC(C(=O)N3CC(c4ccc(Cl)cc4)C3)(CC1)CC2` [Compound 105, 2-(4-chloro-3-fluorophenoxy)-N-{4-[3-(4-chlorophenyl)azetidine-1-carbonyl]bicyclo[2.2.2]octan-1-yl}acetamide] and `O=C(COc1ccc(Cl)c(F)c1)NC12CCC(C(=O)N3CC(c4ccc(Cl)cc4)C3)(CC1)CC2O` (stereo not shown) [Compound 115, 2-(4-chloro-3-fluorophenoxy)-N-{4-[3-(4-chlorophenyl)azetidine-1-carbonyl]-2-hydroxybicyclo[2.2.2]octan-1-yl}acetamide] cannot be ordered by pEC50: over 7.30 for the first, over 7.30 for the second.

Compared with `O=C(COc1ccc(Cl)c(F)c1)NC12CC(C(=O)N3CC(c4ccc(Cl)cc4)C3)(C1)C2` [Compound 106, 2-(4-chloro-3-fluorophenoxy)-N-{3-[3-(4-chlorophenyl)azetidine-1-carbonyl]bicyclo[1.1.1]pentan-1-yl}acetamide], `O=C(COc1ccc(Cl)c(F)c1)NC12CC(C(=O)N3Cc4ccc(Cl)cc4C3)(C1)C2` [Compound 111, N-[3-(5-chloro-1,3-dihydro-2H-isoindole-2-carbonyl)bicyclo[1.1.1]pentan-1-yl]-2-(4-chloro-3-fluorophenoxy)acetamide] is lower in pEC50: over 7.30 for the first, 6.00 to 6.60 for the second.

Compared with `O=C(COc1ccc(Cl)c(F)c1)NC12CCC(C(=O)N3CCN(c4ccc(Cl)cc4)CC3)(CC1)CC2` [Compound 107, 2-(4-chloro-3-fluorophenoxy)-N-{4-[4-(4-chlorophenyl)piperazine-1-carbonyl]bicyclo[2.2.2]octan-1-yl}acetamide], `O=C(COc1ccc(Cl)c(F)c1)NC12CCC(C(=O)N3Cc4ccc(Cl)cc4C3)(CC1)CC2` [Compound 112, N-[4-(5-chloro-1,3-dihydro-2H-isoindole-2-carbonyl)bicyclo[2.2.2]octan-1-yl]-2-(4-chloro-3-fluorophenoxy)acetamide] is lower in pEC50: 6.60 to 7.30 for the first, under 5.70 for the second.

First: O=C(COc1ccc(Cl)c(F)c1)NC12CCC(C(=O)N3CC(O)(c4ccc(Cl)cc4)C3)(CC1)[C@@H](O)C2 [Compound 108, 2-(4-chloro-3-fluorophenoxy)-N-{(3S)-4-[3-(4-chlorophenyl)-3-hydroxyazetidine-1-carbonyl]-3-hydroxybicyclo[2.2.2]octan-1-yl}acetamide]
Second: O=C(COc1ccc(Cl)c(F)c1)NC12CCC(C(=O)N3CC(O)(c4ccc(Cl)cc4)C3)(CC1)[C@H](O)C2 [Compound 109, 2-(4-chloro-3-fluorophenoxy)-N-{(3R)-4-[3-(4-chlorophenyl)-3-hydroxyazetidine-1-carbonyl]-3-hydroxybicyclo[2.2.2]octan-1-yl}acetamide]
The pEC50 of the first is lower: 6.00 to 6.60 for the first, 6.60 to 7.30 for the second. The second is the more potent here.

First: O=C(COc1ccc(Cl)c(F)c1)NC12CCC(C(=O)N3CC(c4ccccc4)C3)(CC1)CC2O (stereo not shown) [Compound 113, 2-(4-chloro-3-fluorophenoxy)-N-[2-hydroxy-4-(3-phenylazetidine-1-carbonyl)bicyclo[2.2.2]octan-1-yl]acetamide]
Second: O=C(COc1ccc(Cl)c(F)c1)NC12CCC(C(=O)N3CCC(c4ccc(Cl)cc4)C3)(CC1)CC2O (stereo not shown) [Compound 114, 2-(4-chloro-3-fluorophenoxy)-N-{4-[3-(4-chlorophenyl)pyrrolidine-1-carbonyl]-2-hydroxybicyclo[2.2.2]octan-1-yl}acetamide]
The pEC50 of the first is higher: 6.00 to 6.60 for the first, under 5.70 for the second. The first is the more potent here.
